Experimental data reported in PubChem BioAssay (NCI).
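All cell lines were grown in 96-well plates and treated with compound for 48 hours. Definition used: TGI = concentration required for complete inhibition of growth.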

How the values were obtained:
Experiment in all cases: NCI tumour cell line growth inhibition, 48 h
[1] = tested on: SF-295 CNS
[2] = tested on: MALME-3M melanoma
[3] = tested on: SF-268 CNS
[4] = tested on: RPMI-8226 leukemia
[5] = tested on: NCI-H23 lung
[6] = tested on: NCI-H226 lung
[7] = tested on: LXFL 529 NSCLC
[8] = tested on: SNB-78 CNS
[9] = tested on: SN12C renal
[10] = tested on: COLO 205 colon
[11] = tested on: M19-MEL melanoma
[12] = tested on: HOP-62 NSCLC
[13] = tested on: HCT-15 colon
[14] = tested on: OVCAR-8 ovarian
[15] = tested on: SF-539 CNS
[16] = tested on: 786-0 renal
[17] = tested on: SNB-19 CNS
[18] = tested on: A549 NSCLC
[19] = tested on: HT29 colon
[20] = tested on: TK-10 renal
[21] = tested on: RXF-631 renal
[22] = tested on: IGROV1 ovarian
[23] = tested on: OVCAR-3 ovarian
[24] = tested on: KM20L2 colon
[25] = tested on: UO-31 renal
[26] = tested on: UACC-62 melanoma
[27] = tested on: SK-MEL-2 melanoma
[28] = tested on: DLD-1 colon
[29] = tested on: EKVX NSCLC
[30] = tested on: SK-OV-3 ovarian
[31] = tested on: NCI-H460 lung
[32] = tested on: RXF 393 renal
[33] = tested on: HCC-2998 colon
[34] = tested on: LOX IMVI melanoma
[35] = tested on: OVCAR-5 ovarian
[36] = tested on: M14 melanoma
[37] = tested on: SW-620 colon
[38] = tested on: UACC-257 melanoma
[39] = tested on: HOP-18 NSCLC
[40] = tested on: CAKI-1 renal
[41] = tested on: SK-MEL-28 melanoma
[42] = tested on: SK-MEL-5 melanoma
[43] = tested on: HCT-116 colon
[44] = tested on: SR leukemia
[45] = tested on: KM12 colon
[46] = tested on: HOP-92 NSCLC
[47] = tested on: A498 renal
[48] = tested on: MOLT-4 leukemia
[49] = tested on: CCRF-CEM leukemia
[50] = tested on: DMS 273 small cell lung
[51] = tested on: K-562 leukemia
[52] = tested on: NCI-H522 lung
[53] = tested on: HL-60(TB) leukemia
[54] = tested on: U251 CNS
[55] = tested on: ACHN renal
[56] = tested on: OVCAR-4 ovarian
[57] = tested on: DMS 114 small cell lung
[58] = tested on: SNB-75 CNS
[59] = tested on: P388 leukemia
[60] = tested on: XF 498 CNS
[61] = tested on: P388/ADR leukemia
[62] = tested on: MCF7 breast
[63] = tested on: NCI/ADR-RES ovarian
[64] = tested on: SN12K1 renal

In the case of `CC(C)c1cccc(C(C)C)c1NC1=CC(=O)C(=O)c2ccccc21`, the TGI [1] was over 100 µM, the TGI [2] was over 100 µM and the TGI [3] was over 100 µM. It also gave a TGI [4] of over 100 µM, a TGI [5] of over 100 µM and a TGI [6] of over 100 µM. The TGI [7] was over 100 µM, the TGI [8] was over 100 µM and the TGI [9] was over 100 µM. For the same compound, the TGI [10] was over 100 µM, the TGI [11] was 43.1 µM and the TGI [12] was over 100 µM. It also gave a TGI [13] of over 100 µM, a TGI [14] of over 100 µM and a TGI [15] of over 100 µM. For the same compound, the TGI [16] was over 100 µM, the TGI [17] was over 100 µM and the TGI [18] was over 100 µM. The TGI [19] was over 100 µM, the TGI [20] was over 100 µM and the TGI [21] was over 100 µM. The TGI [22] was over 100 µM, the TGI [23] was over 100 µM and the TGI [24] was over 100 µM. For the same compound, the TGI [25] was over 100 µM, the TGI [26] was over 100 µM and the TGI [27] was over 100 µM. The TGI [28] was over 100 µM, the TGI [29] was over 100 µM and the TGI [30] was over 100 µM. It also gave a TGI [31] of over 100 µM, a TGI [32] of over 100 µM and a TGI [33] of over 100 µM. The TGI [34] was over 100 µM, the TGI [35] was over 100 µM and the TGI [36] was over 100 µM. The TGI [37] was over 100 µM, the TGI [38] was over 100 µM and the TGI [39] was over 100 µM. It also gave a TGI [40] of over 100 µM, a TGI [41] of over 100 µM and a TGI [42] of over 100 µM. The TGI [43] was over 100 µM, the TGI [44] was over 100 µM and the TGI [45] was over 100 µM. For the same compound, the TGI [46] was over 100 µM, the TGI [47] was over 100 µM and the TGI [48] was over 100 µM. The TGI [49] was over 100 µM, the TGI [50] was over 100 µM and the TGI [51] was over 100 µM. The TGI [52] was over 100 µM, the TGI [53] was over 100 µM and the TGI [54] was over 100 µM.

`CC(C)(C)C[P+](C)(C)c1ccccc1` gave a TGI [1] of over 100 µM, a TGI [2] of over 100 µM and a TGI [3] of over 100 µM. The TGI [4] was over 100 µM, the TGI [5] was over 100 µM and the TGI [6] was over 100 µM. For the same compound, the TGI [7] was over 100 µM, the TGI [8] was over 100 µM and the TGI [9] was over 100 µM. The TGI [10] was over 100 µM, the TGI [11] was over 100 µM and the TGI [12] was over 100 µM. For the same compound, the TGI [55] was over 100 µM, the TGI [13] was over 100 µM and the TGI [56] was over 100 µM. It also gave a TGI [14] of over 100 µM, a TGI [15] of over 100 µM and a TGI [16] of over 100 µM. For the same compound, the TGI [17] was over 100 µM, the TGI [18] was over 100 µM and the TGI [19] was over 100 µM. For the same compound, the TGI [20] was over 100 µM, the TGI [21] was over 100 µM and the TGI [22] was over 100 µM. For the same compound, the TGI [23] was over 100 µM, the TGI [24] was over 100 µM and the TGI [25] was over 100 µM. The TGI [26] was over 100 µM, the TGI [27] was over 100 µM and the TGI [28] was over 100 µM. For the same compound, the TGI [29] was over 100 µM, the TGI [57] was over 100 µM and the TGI [30] was over 100 µM. For the same compound, the TGI [31] was over 100 µM, the TGI [32] was over 100 µM and the TGI [33] was over 100 µM. The TGI [34] was over 100 µM, the TGI [35] was over 100 µM and the TGI [36] was over 100 µM. The TGI [37] was over 100 µM, the TGI [38] was over 100 µM and the TGI [39] was over 100 µM. For the same compound, the TGI [40] was over 100 µM, the TGI [41] was over 100 µM and the TGI [42] was over 100 µM. It also gave a TGI [43] of over 100 µM, a TGI [44] of over 100 µM and a TGI [45] of over 100 µM. The TGI [58] was over 100 µM, the TGI [46] was over 100 µM and the TGI [48] was over 100 µM. It also gave a TGI [49] of over 100 µM, a TGI [50] of over 100 µM and a TGI [51] of over 100 µM. It also gave a TGI [53] of over 100 µM and a TGI [54] of over 100 µM.

With `C=C1C(=O)OC2/C=C(\C)CC(O)/C=C(/CO)CC(OC(=O)/C(C)=C/C)C12` (stereo unspecified) the TGI [1] was 401 µM, the TGI [2] was 66.6 µM and the TGI [3] was 233 µM. For the same compound, the TGI [4] was 17.4 µM, the TGI [5] was 136 µM and the TGI [6] was 91 µM. It also gave a TGI [8] of 319 µM, a TGI [9] of 437 µM and a TGI [10] of 96.8 µM. The TGI [11] was 92 µM, the TGI [12] was 246 µM and the TGI [13] was 151 µM. For the same compound, the TGI [56] was 319 µM, the TGI [14] was 122 µM and the TGI [15] was 115 µM. It also gave a TGI [17] of 353 µM, a TGI [18] of 451 µM and a TGI [19] of 303 µM. It also gave a TGI [22] of 121 µM, a TGI [59] of 113 µM and a TGI [23] of 122 µM. The TGI [24] was 246 µM, the TGI [25] was 439 µM and the TGI [26] was 274 µM. The TGI [27] was 344 µM, the TGI [28] was 139 µM and the TGI [29] was 59.1 µM. It also gave a TGI [57] of 30.5 µM, a TGI [30] of 309 µM and a TGI [31] of 168 µM. The TGI [32] was 44.5 µM, the TGI [33] was 134 µM and the TGI [35] was 297 µM. For the same compound, the TGI [37] was 50.3 µM, the TGI [38] was 202 µM and the TGI [39] was 49.7 µM. It also gave a TGI [60] of 37.2 µM, a TGI [40] of 238 µM and a TGI [41] of 41.1 µM. For the same compound, the TGI [42] was 44.1 µM, the TGI [61] was 240 µM and the TGI [62] was 68.2 µM. For the same compound, the TGI [43] was 115 µM, the TGI [45] was 229 µM and the TGI [58] was 417 µM. The TGI [46] was 111 µM, the TGI [63] was 538 µM and the TGI [47] was 58.4 µM. The TGI [48] was 43.8 µM, the TGI [49] was 76 µM and the TGI [50] was 82.5 µM. For the same compound, the TGI [51] was 64.4 µM, the TGI [52] was 26.4 µM and the TGI [53] was 34.9 µM. The TGI [64] was 76.6 µM and the TGI [54] was 303 µM.
